Patent EP0498830B1, “GLUTAMIC AND ASPARTIC ACID DERIVATIVES WITH ANTIGASTRIN ACTIVITY AND A METHOD FOR THEIR PREPARATION” (ROTTA RESEARCH LABORATORIUM S.P.A., priority 1989, dated 1991)
Where two headings read alike, the source gives them in different places.

How the values were obtained:
[1] = molecular target: T1, gastrin receptor sites on the parietal cell membranes of the fundic mucosa of a guinea-pig stomach (Cavia porcellus, UniProt H0VZC5); assay: Inhibition of binding of tritiated pentagastrin to isolated guinea-pig gastric glands; parameters: from tissue; host or cells: isolated gastric glands from guinea-pig fundic mucosa (collagenase digestion)
T1 sequence (H0VZC5 1-426): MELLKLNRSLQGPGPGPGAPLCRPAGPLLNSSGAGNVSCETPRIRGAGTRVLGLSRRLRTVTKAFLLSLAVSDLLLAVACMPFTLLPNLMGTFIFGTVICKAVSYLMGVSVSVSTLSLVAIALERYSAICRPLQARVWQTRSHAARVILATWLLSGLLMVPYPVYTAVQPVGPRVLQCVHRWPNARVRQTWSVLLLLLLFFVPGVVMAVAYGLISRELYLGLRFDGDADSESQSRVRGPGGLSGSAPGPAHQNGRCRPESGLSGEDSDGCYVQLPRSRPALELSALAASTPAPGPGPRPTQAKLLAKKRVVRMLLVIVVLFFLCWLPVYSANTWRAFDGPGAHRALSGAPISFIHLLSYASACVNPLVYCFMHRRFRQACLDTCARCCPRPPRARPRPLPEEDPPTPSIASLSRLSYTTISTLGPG
Procedure: The capacity of some of the compounds which are the subject of the invention to inhibit the binding of pentagastrin-[beta-alanyl-3-3H(N)] to the gastrin receptor sites on the parietal cell membranes of the fundic mucosa of a guinea-pig stomach was evaluated by comparison with the displacement of pentagastrin induced by proglumide, which is a reference antigastrin compound, by lorglumide, which is a powerful CCK antagonist mentioned above, and by the compound D5 which is the optical antipode (the L-series enantiomer) of the compound D1.
Male guinea pigs weighing about 400-500g were used. After the guinea pig had been killed, its stomach was removed and placed in oxygenated SPB buffer at 37°C (SPB = saline phosphate buffer: 149.6 mM NaCl, 3 mM K₂HPO₄, 0.64 mM NaH₂PO₄, pH 7.3).
After washing in the buffer, the stomach was placed on a petri dish and the antral part discarded.
The mucosa of the remaining part was removed from the underlying muscular part and was then chopped and transferred to a flask containing a collagenase digestion solution, 0.1% BSA and 0.2% glucose. The solution was incubated at 37°C for 10 minutes under agitation and a stream of 0₂.
During the incubation period, the tissue was passed several times through a series of pipettes with decreasing diameters in order to facilitate its digestion. At the end of the period, the tissue was removed and centrifuged at 1000 rpm. The supernatant liquid resulting from the centrifuging was discarded and the pellet washed several times with a washing buffer containing EPTA to remove the collagenase.
The glands were then isolated from the undigested tissue by conventional techniques, suspended in Hepes buffer for binding and incubated together with a radioactive tracer and the compounds under test for 30 minutes at 25°C.
After the supernatant liquid had been removed by centrifuging, the radioactivity associated with the pellet was determined with a liquid scintillator. The specific binding was determined as the difference between the binding in the absence and in the presence of 10⁻⁶ M pentagastrin.
The results obtained are shown in Table 1 which gives the IC50, that is, the concentration (in moles/litre) of the antagonist which can displace 50% of the pentagastrin tritiate from the receptor.

[2] = molecular target: T2, central gastrin receptors (Mus musculus, UniProt P56481); assay: Inhibition of binding of tritiated pentagastrin to mouse cerebral cortex membranes; parameters: Mouse cortex tissue was homogenised cold in 20 volumes of tris buffer (pH 7.7); from tissue; host or cells: mouse cerebral cortex membranes; species or system mice; conditions: displacement of pentagastrin tritiate; 40 minutes at 37°C
T2 sequence (P56481 1-453): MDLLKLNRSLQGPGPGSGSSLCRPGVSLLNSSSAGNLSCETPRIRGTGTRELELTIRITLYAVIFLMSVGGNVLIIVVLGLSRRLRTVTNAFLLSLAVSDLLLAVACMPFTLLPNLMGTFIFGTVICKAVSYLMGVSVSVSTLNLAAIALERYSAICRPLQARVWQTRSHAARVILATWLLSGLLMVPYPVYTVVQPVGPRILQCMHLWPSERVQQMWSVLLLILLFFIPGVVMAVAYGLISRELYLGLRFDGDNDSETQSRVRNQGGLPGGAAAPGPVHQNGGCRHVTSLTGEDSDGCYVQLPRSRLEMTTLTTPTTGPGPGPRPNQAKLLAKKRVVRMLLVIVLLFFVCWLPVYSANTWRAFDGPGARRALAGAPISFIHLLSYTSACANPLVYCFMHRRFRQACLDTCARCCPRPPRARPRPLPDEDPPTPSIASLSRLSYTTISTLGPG
Procedure: Cerebral cortex membranes were therefore used and pentagastrin tritiate was again used as the ligand.
Mouse cortex tissue was homogenised cold in 20 volumes of tris buffer (pH 7.7). After washing and centrifuging, the final pellet was resuspended in 20 volumes of binding buffer containing, inter alia, TRIS, BSA and bacitracin. 0.4 ml of the membrane thus obtained were then incubated with a radioactive tracer and with the compounds under test for 40 minutes at 37°C.
After the supernatant liquid had been removed by centrifuging, the radioactivity associated with the pellet was determined, again with a liquid scintillator. The specific binding is the difference between the binding in the absence and in the presence of 10⁻⁶M pentagastrin.
Again, this gives the IC50s of the compounds tested with the meaning as given above.

[3] = test system: gastric acid secretion induced by pentagastrin; assay: Antisecretive activity in anaesthetised rats, stimulant pentagastrin; format: in vivo; conditions: Rattus norvegicus, iv; pentagastrin 30 mcg/kg/h; I.V. bolus; anaesthetised rats; read-out: Antagonistic activity (ED50 mg/kg IV) towards gastric acid secretion induced by pentagastrin
Procedure: The antisecretive activity was determined in rats with the use of male animals weighing about 200g, anaesthetised with urethane. Gastric secretion was stimulated with pentagastrin. K.S. Lai's method (Gut 5, (1964), 327-341) was used, with slight modifications.
After tracheotomy, oesophageal and duodenal cannulae were inserted. A tepid solution (37°C) of 0.25 mM NaOH was perfused through the stomach by means of a peristaltic pump at a constant flow rate of 1 ml/minute. After stabilisation for 20 minutes, the dose of the stimulant, indicated in Table 3, dissolved in a physiological solution, was perfused for 120 minutes at a rate of 0.95 ml/hour. After 60 minutes of perfusion (basic stimulation), the products under test were administered intravenously (I.V.) in boli whilst the perfusion of the stimulant continued for a further 60 minutes. The acid secretion was recorded continuously as a function of time.
The activity of the product was evaluated as the reduction in the secreted acidity after administration of the product as a percentage of the basic acidity measured during the first 60 minutes of collection during which only pentagastrin was present.
The antagonistic compounds tested were administered in different doses so that an ID50 (that is the dose (in mg/Kg I.V.) which can inhibit the effect of the pentagastrin by 50% could be calculated.
The results thus obtained are given in the following table in which the activities of the compounds are expressed as ID50s under the stimulus of pentagastrin at 30 mcg/Kg/h.

[4] = test system: guinea-pig gall bladders stimulated in vitro by CCK-8; assay: Anti-CCK activity on guinea-pig gall bladder contracted in vitro by CCK-8; conditions: CCK-8 10 ng/ml; at least three tests per compound
Procedure: In order to check the hypothesis that the molecular conformation of the subject compounds is suitable to give them a specific antagonistic activity towards gastrin and not towards CCK, the anticontracturant activity of some of the compounds of the invention was tested on guinea-pig gall bladders stimulated in vitro by CCK-8.
A longitudinal strip of guinea-pig gall bladder was placed in a bath for isolated organs in the presence of Krebs at a temperature of 32°C, continuously oxygenated by an oxygen-CO₂ mixture (95-5 V/V).
The isometric contractions were detected by means of a force transducer and recorded.
The gall bladder was contracted with the use of a 10ng/ml concentration of CCK-8; the antagonistic activity of the compounds towards the contracturant effect of the CCK was determined with the use of different concentrations and the IC50 value, that is, the concentration in mcg/ml of the compound which is able to antagonise the contracturant effect of the CCK by 50%, thus determined.
The results obtained are set out in the table below which gives the compounds tested and the IC50s which were calculated by the regression method on a set of at least three tests for each compound investigated.

[5] = displacement of 50% of pentagastrin tritiate, 30 minutes at 25°C, read-out: IC50

| SMILES | times less active than the corresponding compound D1 ([1]; L-series vs D-series enantiomer, gastric glands) | IC50 [1, 5] [nM] | IC50 [2] [nM] | ED50 [3] [mg/kg] | IC50 ACTIVITY [4] [µg/mL] | IC50 [1] [nM] |
| --- | --- | --- | --- | --- | --- | --- |
| CC(C)(C)CCNC(=O)[C@H](CCC(=O)O)NC(=O)c1cccc(Cl)c1 [D5, reference compound] | about 10 times | 520 | 660 | 89 |  |  |
| O=C(O)CC[C@@H](NC(=O)c1cccc(Cl)c1)C(=O)NC1CCCCCC1 [D4] |  | 2300 |  | 64 |  |  |
| CCC(C)(CC)CCNC(=O)C(CC(=O)O)NC(=O)c1cccc(C)c1 (racemic) [A26] |  | 840 |  | 52 |  |  |
| CCC(CC)CCNC(=O)C(CCC(=O)O)NC(=O)c1cccc(Cl)c1 (racemic) [A11] |  | 650 |  | 53 |  |  |
| CC(C)CCNC(=O)C(CCC(=O)O)NC(=O)c1cccc(Cl)c1 (racemic) [A2] |  | 3100 |  | 48 |  |  |
| CCC(C)(CCNC(=O)C(CCC(=O)O)NC(=O)c1cccc(Cl)c1)C(C)C (stereo not shown) [A16] |  | 290 |  | 37 |  |  |
| CCC(CC)(CC)CCNC(=O)C(CCC(=O)O)NC(=O)c1cccc(Cl)c1 (racemic) [A14] |  | 78 | 93 | 39 |  |  |
| CCCCCNC(=O)C(CCC(=O)O)NC(=O)c1cccc(C)c1 (racemic) [A17] |  | 4500 | 17000 | 65 |  |  |
| CCC(C)(C)CCNC(=O)C(CCC(=O)O)NC(=O)c1cccc(Cl)c1 (racemic) [A10] |  | 230 | 180 | 37 |  |  |
| CCCCCCNC(=O)C(CCC(=O)O)NC(=O)c1cccc(Cl)c1 (racemic) [A3] |  | 4800 | 7500 | 54 |  |  |
| CCCCCNC(=O)C(CCC(=O)O)NC(=O)c1cccc(Cl)c1 (racemic) [A1] |  | 2000 | 6700 | 56 | > 100 |  |
| Cc1cccc(C(=O)NC(CCC(=O)O)C(=O)NC2CCCCC2)c1 (racemic) [A19] |  | 41000 |  | 98 |  |  |
| CCCCCCNC(=O)C(CCC(=O)O)NC(=O)c1cccc(C)c1 (racemic) [A18] |  | 5800 |  | 58 |  |  |
| CCC(C)(CC)CCNC(=O)C(CCC(=O)O)NC(=O)c1cc(Cl)ccc1[N+](=O)[O-] (racemic) [A23] |  | 66 | 230 | 40 |  |  |
| CCC(C)(C)CCNC(=O)C(CCC(=O)O)NC(=O)c1cccc(C)c1 (racemic) [A20] |  | 680 | 830 | 44 | > 100 |  |
| CCCN(CCC)C(=O)C(CCC(=O)O)NC(=O)c1ccccc1 (stereo not shown) [Proglumide, reference compound] |  |  | 220000 | 500 |  |  |
| CC(C)CCCNC(=O)C(CCC(=O)O)NC(=O)c1cccc(Cl)c1 (racemic) [A4] |  | 3300 |  | 61 |  |  |
| O=C(O)CCC(NC(=O)c1cccc(Cl)c1)C(=O)NC1CCCCC1 (racemic) [A7] |  | 17000 |  | 93 | > 100 |  |
| CCC(C)CCNC(=O)C(CCC(=O)O)NC(=O)c1cccc(Cl)c1 (stereo not shown) [A6] |  | 4500 |  | 55 |  |  |
| CCC(C)(CC)CCNC(=O)[C@@H](CCC(=O)O)NC(=O)c1cccc(Cl)c1 [D3] |  | 58 |  | 30 |  |  |
| CCC(C)(CC)CCNC(=O)C(CC(=O)O)NC(=O)c1cccc(Cl)c1 (racemic) [A24] |  | 230 | 290 | 42 |  |  |
| CC(C)(C)CCNC(=O)C(CCC(=O)O)NC(=O)c1cc(Cl)cc(Cl)c1 (racemic) [A21] |  |  | 80 | 34 |  | 69 |
| O=C(O)CC(NC(=O)c1cccc(Cl)c1)C(=O)NC1CCCCCC1 (racemic) [A25] |  | 7300 |  | 74 |  |  |
| CCCCCCCNC(=O)C(CCC(=O)O)NC(=O)c1cccc(Cl)c1 (racemic) [A8] |  | 12000 | 39000 | > 100 |  |  |
| CCC(C)(CC)CCNC(=O)C(CCC(=O)O)NC(=O)c1cc(C)cc(C)c1 (racemic) [A22] |  | 2900 | 2400 | 41 |  |  |
| CC(C)(C)CCCNC(=O)C(CCC(=O)O)NC(=O)c1cccc(Cl)c1 (racemic) [A9] |  | 200 | 220 | 34 |  |  |
| O=C(O)CC[C@H](NC(=O)c1cccc(Cl)c1)C(=O)NC1CCCCCC1 [D6, reference compound] |  | 67000 |  |  |  |  |
| CC(C)(C)CCCNC(=O)[C@@H](CCC(=O)O)NC(=O)c1cccc(Cl)c1 [D2] |  | 34 | 59 | 34 |  |  |
| O=C(O)CCC(NC(=O)c1cccc(Cl)c1)C(=O)NC1CCCCCC1 (racemic) [A12] |  | 3800 | 6400 | 58 |  |  |
